The results in this text go back to publication PMC2910436 (Cell, 2010).

One assay deals with EntA (Escherichia coli, UniProt P15047). Nature of the assay: NADH formation at […] nm. The assay is classed as biochemical. The following applies: co-substrate 2,3-diDHBA.
For the next assay, the target named is BDH2 (DHRS6) (Mus musculus, UniProt Q8JZV9). Nature of the assay: NADH formation at […] nm. Format: biochemical. The settings on record: co-substrate 2,3-diDHBA.

The structures appear in SMILES notation.

Sequence of EntA (P15047 whole entry): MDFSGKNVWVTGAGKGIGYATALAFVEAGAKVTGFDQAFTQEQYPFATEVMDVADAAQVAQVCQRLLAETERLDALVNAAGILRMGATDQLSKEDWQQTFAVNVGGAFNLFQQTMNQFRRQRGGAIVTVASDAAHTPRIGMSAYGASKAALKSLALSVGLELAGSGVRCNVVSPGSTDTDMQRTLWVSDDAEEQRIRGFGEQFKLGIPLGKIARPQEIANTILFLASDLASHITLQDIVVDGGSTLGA
Sequence of BDH2 (DHRS6) (Q8JZV9 whole entry): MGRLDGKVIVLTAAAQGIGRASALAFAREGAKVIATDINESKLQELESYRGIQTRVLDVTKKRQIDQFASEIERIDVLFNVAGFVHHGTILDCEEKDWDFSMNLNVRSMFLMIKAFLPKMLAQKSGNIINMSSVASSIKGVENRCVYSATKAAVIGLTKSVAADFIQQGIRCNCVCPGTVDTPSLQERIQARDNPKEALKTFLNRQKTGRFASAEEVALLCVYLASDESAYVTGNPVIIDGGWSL

As to `NC(=O)c1ccc[n+]([C@@H]2O[C@H](COP(=O)(O)OP(=O)(O)OC[C@H]3O[C@@H](n4cnc5c(N)ncnc54)[C@H](O)[C@@H]3O)[C@@H](O)[C@H]2O)c1` [NAD^+], the “NADH formation at 340 nm” value at EntA is “wild-type EntA and BDH2 proteins, but not their mutant derivatives, catalyzed the conversion of NAD”; at BDH2 (DHRS6), “wild-type EntA and BDH2 proteins, but not their mutant derivatives, catalyzed the conversion of NAD”.
